Results taken from US7875619B2, “Hetero substituted sodium channel blockers” (Parion Sciences, Inc., priority 2004, dated 2011).
Where a name gives a salt, the structure may show the parent alone.

Biological target: T1, sodium channel (ENaC), canine bronchial epithelia (Canis lupus familiaris, UniProt A0A8I3MKE6+A0A8I3Q679+Q95165)
T1 construct: endogenous in cells; host or cells: primary canine bronchial epithelial cells cultured at air-liquid interface, mounted in Ussing chambers
T1 sequence (A0A8I3Q679 1-649): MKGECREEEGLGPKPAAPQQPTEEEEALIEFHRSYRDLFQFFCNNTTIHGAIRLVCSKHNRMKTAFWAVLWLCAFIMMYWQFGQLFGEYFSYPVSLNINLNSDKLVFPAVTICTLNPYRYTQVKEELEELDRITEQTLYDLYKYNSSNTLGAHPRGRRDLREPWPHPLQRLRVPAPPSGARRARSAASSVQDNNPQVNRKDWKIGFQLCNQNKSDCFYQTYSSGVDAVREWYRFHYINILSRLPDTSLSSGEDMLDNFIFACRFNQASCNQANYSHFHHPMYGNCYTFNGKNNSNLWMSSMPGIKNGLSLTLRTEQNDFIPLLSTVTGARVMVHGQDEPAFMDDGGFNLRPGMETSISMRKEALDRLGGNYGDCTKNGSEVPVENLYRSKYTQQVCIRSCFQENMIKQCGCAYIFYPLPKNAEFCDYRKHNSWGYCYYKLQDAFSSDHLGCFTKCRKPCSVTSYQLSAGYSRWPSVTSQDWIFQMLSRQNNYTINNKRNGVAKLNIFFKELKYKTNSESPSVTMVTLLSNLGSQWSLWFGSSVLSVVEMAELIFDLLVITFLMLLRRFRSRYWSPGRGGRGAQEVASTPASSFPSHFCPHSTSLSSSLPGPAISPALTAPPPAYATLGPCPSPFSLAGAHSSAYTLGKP
T1 sequence (Q95165 1-641): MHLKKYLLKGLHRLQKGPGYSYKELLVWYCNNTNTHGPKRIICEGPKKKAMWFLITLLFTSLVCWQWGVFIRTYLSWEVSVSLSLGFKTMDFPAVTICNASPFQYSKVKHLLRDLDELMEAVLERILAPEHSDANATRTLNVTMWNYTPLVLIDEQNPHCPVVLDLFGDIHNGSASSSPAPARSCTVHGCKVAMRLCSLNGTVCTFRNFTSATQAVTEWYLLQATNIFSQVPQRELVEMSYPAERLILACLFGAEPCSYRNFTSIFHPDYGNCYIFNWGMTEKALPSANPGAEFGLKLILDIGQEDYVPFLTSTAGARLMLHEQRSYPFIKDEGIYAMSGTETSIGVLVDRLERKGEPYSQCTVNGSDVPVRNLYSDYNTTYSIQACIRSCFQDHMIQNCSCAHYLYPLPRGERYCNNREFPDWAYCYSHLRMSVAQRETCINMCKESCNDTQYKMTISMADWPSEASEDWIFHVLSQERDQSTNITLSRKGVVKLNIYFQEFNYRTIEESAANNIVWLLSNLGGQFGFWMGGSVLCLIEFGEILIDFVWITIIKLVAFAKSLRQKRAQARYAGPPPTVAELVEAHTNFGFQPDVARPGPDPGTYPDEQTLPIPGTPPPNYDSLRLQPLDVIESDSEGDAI
T1 sequence (A0A8I3MKE6 1-646): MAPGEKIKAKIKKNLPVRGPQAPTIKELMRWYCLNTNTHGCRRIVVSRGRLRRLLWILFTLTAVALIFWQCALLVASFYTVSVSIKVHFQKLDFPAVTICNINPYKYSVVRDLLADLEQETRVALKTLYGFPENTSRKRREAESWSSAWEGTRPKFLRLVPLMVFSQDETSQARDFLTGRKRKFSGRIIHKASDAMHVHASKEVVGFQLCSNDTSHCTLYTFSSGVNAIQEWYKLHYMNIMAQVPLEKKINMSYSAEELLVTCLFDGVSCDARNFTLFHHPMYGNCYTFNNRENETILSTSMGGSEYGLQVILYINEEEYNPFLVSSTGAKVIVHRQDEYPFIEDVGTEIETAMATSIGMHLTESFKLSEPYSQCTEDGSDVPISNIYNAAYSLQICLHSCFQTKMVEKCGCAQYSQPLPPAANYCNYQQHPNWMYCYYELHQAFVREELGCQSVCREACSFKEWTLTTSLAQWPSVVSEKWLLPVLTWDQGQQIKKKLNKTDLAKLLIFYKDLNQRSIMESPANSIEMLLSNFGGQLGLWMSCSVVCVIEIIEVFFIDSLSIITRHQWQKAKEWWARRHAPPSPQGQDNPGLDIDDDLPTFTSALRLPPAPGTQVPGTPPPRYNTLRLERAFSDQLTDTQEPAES
Test: In vitro measure of sodium channel blocking activity: inhibition of short circuit current (ISC) in airway epithelial monolayers in Ussing chambers
Assay type: cell-based
Conditions: mean of N runs; for Fold Amiloride** (PSA 4022 = 100) Mean: relative potency for PSA 4022 = 100 using EC50 from PSA 4022 in same run
Protocol: One assay used to assess mechanism of action and/or potency of the compounds of the present invention involves the determination of lumenal drug inhibition of airway epithelial sodium currents measured under short circuit current (ISC) using airway epithelial monolayers mounted in Ussing chambers. Cells obtained from freshly excised human, dog, sheep or rodent airways are seeded onto porous 0.4 micron Snapwell™ Inserts (CoStar), cultured at air-liquid interface (ALI) conditions in hormonally defined media, and assayed for sodium transport activity (ISC) while bathed in Krebs Bicarbonate Ringer (KBR) in Using chambers. All test drug additions are to the lumenal bath with half-log dose addition protocols (from 1×10^−11 M to 3×10^−5M), and the cumulative change in ISC (inhibition) recorded. All drugs are prepared in dimethyl sulfoxide as stock solutions at a concentration of 1×10^−2 M and stored at −20° C. […] After the maximal concentration (5×10^−5 M) is administered, the lumenal bath is exchanged three times with fresh drug-free KBR solution, and the resultant ISC measured after each wash for approximately 5 minutes in duration. Reversibility is defined as the percent return to the baseline value for sodium current after the third wash. All data from the voltage clamps are collected via a computer interface and analyzed off-line.
Dose-effect relationships for all compounds are considered and analyzed by the Prism 3.0 program.
PSA 4022 was also tested in each assay as a positive control.

Row | EC50 [nM] | Fold Amiloride** (PSA 4022 = 100) Mean | SMILES
1 | 23.8 | 44.4 | N=C(NCCCCc1ccc(NCCCC(N)=O)cc1)NC(=O)c1nc(Cl)c(N)nc1N [PSA 18150, 4-(4-(4-[N′-(3,5-diamino-6-chloropyrazine-2-carbonyl)guanidino]-butyl}phenylamino)butyramide dihydrochloride]
2 | 3.27 | 268 | N=C(N)NCCC(=O)Nc1ccc(CCCCNC(=N)NC(=O)c2nc(Cl)c(N)nc2N)cc1 [PSA 14984, N-(4-{4-[N′-(3,5-diamino-6-chloropyrazine-2-carbonyl)guanidino]-butyl}phenyl)-3-guanidinopropionamide dihydrochloride]
3 | 6.83 | – | N=C(N)NCCNc1ccc(CCCCNC(=N)NC(=O)c2nc(Cl)c(N)nc2N)cc1 [PSA 17339, N-(3,5-diamino-6-chloropyrazine-2-carbonyl)-N′-{4-[(2-guanidinoethylamino)phenyl]butyl}guanidine trihydrochloride]
4 | 12.7 | 64.9 | N=C(NCCCCc1ccc(OCC(=O)N(CCO)CCO)cc1)NC(=O)c1nc(Cl)c(N)nc1N [PSA 16826, 2-(4-{4-[N′-(3,5-diamino-6-chloropyrazine-2-carbonyl)guanidino]-butyl}phenoxy)-N,N-bis-(2-hydroxyethyl)acetamide]
5 | 32 | 38.6 | COC(=O)[C@@H](N)COc1ccc(CCCCNC(=N)NC(=O)c2nc(Cl)c(N)nc2N)cc1 [PSA 11041, 2-amino-3-(4-{4-[N′-(3,5-diamino-6-chloropyrazine-2-carbonyl)-guanidino]butyl}phenoxy)propionic acid methyl ester]
6 | 4.85 | 287 | Cl.N=C(N)NCC(O)COc1ccc(CCCCNC(=N)NC(=O)c2nc(Cl)c(N)nc2N)cc1 (centres unmarked) [PSA 11975, N-(3,5-diamino-6-chloropyrazine-2-carbonyl)-N′-{4-[4-(3-guanidino-2-hydroxypropoxy)phenyl]butyl}guanidine hydrochloride]
7 | 19.4 | 31.3 | COC(=O)C(N)CCOc1ccc(CCCCNC(=N)NC(=O)c2nc(Cl)c(N)nc2N)cc1 (centres unmarked) [PSA 17587, 2-amino-4-(4-{4-[N′-(3,5-diamino-6-chloropyrazine-2-carbonyl)-guanidino]butyl}phenoxy)butyric acid methyl ester hydrochloride]
8 | 14.1 | 90.2 | N=C(NCCCCc1ccc(OCCNCC(N)C(N)=O)cc1)NC(=O)c1nc(Cl)c(N)nc1N (centres unmarked) [PSA 18704, 2-amino-3-[2-(4-{4-[N′-(3,5-diamino-6-chloropyrazine-2-carbonyl)-guanidino]butyl}phenoxy)ethylamino]propionamide tri-hydrochloride]
9 | 5.82 | 136 | N=C(NCCCCc1ccc(C(=O)NCCN)cc1)NC(=O)c1nc(Cl)c(N)nc1N [PSA 11698, 4-{4-[N-(3,5-diamino-6-chloropyrazine-2-carbonyl)guanidino]butyl}-N-(2-aminoethyl)benzamide hydrochloride]

Continued, compound first:

Row | SMILES | EC50 [nM] | Fold Amiloride** (PSA 4022 = 100) Mean
10 | N=C(NCCCCc1ccc(N(CCN(C[C@H](O)CO)C[C@H](O)CO)C[C@H](O)CO)cc1)NC(=O)c1nc(Cl)c(N)nc1N [PSA 16311, N-(4{4-[{2-[N,N-bis-((2S)-2,3-dihydroxypropyl)amino]ethyl}-N-((2S)-2,3-dihydroxypropyl)amino]phenyl}butyl)-N′-(3,5-diamino-6-chloropyrazine-2-carbonyl)guanidine] | 33.2 | 25.6
11 | N=C(NCCCCc1ccc(SCCC(N)=O)cc1)NC(=O)c1nc(Cl)c(N)nc1N [PSA 19605, 3-(4-{4-[N′-(3,5-diamino-6-chloropyrazine-2-carbonyl)guanidino]butyl}phenylthio)propionamide] | 4.7 | 145
12 | N=C(NCCCCc1ccc(NCC(N)=O)cc1)NC(=O)c1nc(Cl)c(N)nc1N [PSA 15104, 2-(4-{4-[N′-(3,5-diamino-6-chloropyrazine-2-carbonyl)guanidino]-butyl}phenylamino)acetamide dihydrochloride] | 19.1 | 26.4
13 | Cl.N=C(N)NCCNC(=O)c1ccc(CCCCNC(=N)NC(=O)c2nc(Cl)c(N)nc2N)cc1 [PSA 11834, 4-{4-[N′-(3,5-diamino-6-chloropyrazine-2-carbonyl)guanidino]butyl}-N-(2-guanidinoethyl)benzamide hydrochloride] | 3.68 | 276
14 | N=C(NCCCCc1ccc(NCCCC(=O)O)cc1)NC(=O)c1nc(Cl)c(N)nc1N [PSA 18345, 4-(4-{4-[N′-(3,5-diamino-6-chloropyrazine-2-carbonyl)guanidino]-butyl}phenylamino)butyric acid] | 69 | 12 .4
15 | N=C(NCCCCc1ccc(NCCN(C[C@H](O)[C@H](O)CO)C[C@H](O)[C@H](O)CO)cc1)NC(=O)c1nc(Cl)c(N)nc1N [PSA 17218, N-[4-(4-{2-[bis-((2S,3R)-2,3,4-trihydroxybutyl)amino]ethylamino}phenyl)butyl]-N′-(3,5-diamino-6-chloropyrazine-2-carbonyl)guanidine trihydrochloride] | 32.4 | 24.7
16 | N=C(NCCCCc1ccc(NC[C@@H](O)CO)cc1)NC(=O)c1nc(Cl)c(N)nc1N [PSA 16722, N-(3,5-diamino-6-chloropyrazine-2-carbonyl)-N′-{4-[4-((2R)-2,3-dihydroxypropylamino)phenyl]butyl}guanidine] | 22.8 | 50.5
17 | N=C(NCCCCc1ccc(NCCNC[C@@H](O)CO)cc1)NC(=O)c1nc(Cl)c(N)nc1N [PSA 16721, N-(4-{4-[{2-[((2R)-2,3-dihydroxypropyl)amino]ethylamino}phenyl)butyl-N′-(3,5-diamino-6-chloropyrazine-2-carbonyl)guanidinetrihydrochloride] | 25.4 | 44.7
18 | N=C(NCCCCc1ccc(OC[C@H](N)C(=O)O)cc1)NC(=O)c1nc(Cl)c(N)nc1N (stereo in doubt) [PSA 10941, 2-amino-3-(4-{4-[N′-(3,5-diamino-6-chloropyrazine-2-carbonyl)-guanidino]butyl}phenoxy)propionic acid] | 32.1 | 30.0
